Results taken from ChEMBL document CHEMBL1201862, “PubChem BioAssay data set” (2004).
The source made the active and inactive calls.

How the values were obtained:
[1] = target: T1, Polyadenylate-binding protein 1 (Homo sapiens, UniProt P11940); assay: PABP1 MLLE–PAM2 interaction inhibitors, dose response, miRNA deadenylation inhibitor project, biochemical, fluorescence polarization, Cy5-PAM2 peptide, secondary (AID 602260); assay type: functional; settings: read-out: IC50_Mean
[2] = target: T2, X-box-binding protein 1 (Homo sapiens, UniProt P17861); assay type: functional, Cricetulus griseus;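 also: confirmatory dose-response counter-screen serving a CHOP assay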
T2 sequence (P17861 whole entry): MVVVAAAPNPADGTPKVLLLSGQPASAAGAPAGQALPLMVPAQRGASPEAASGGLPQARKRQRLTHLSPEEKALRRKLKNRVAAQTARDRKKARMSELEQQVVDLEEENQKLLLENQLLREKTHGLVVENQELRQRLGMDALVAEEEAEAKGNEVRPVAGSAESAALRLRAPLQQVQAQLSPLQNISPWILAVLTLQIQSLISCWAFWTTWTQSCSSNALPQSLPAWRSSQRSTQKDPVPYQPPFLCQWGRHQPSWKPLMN

[3] = target: T1, Polyadenylate-binding protein 1; assay: PABP1 MLLE–PAM2 binding inhibitor potency, dose response, biochemical, fluorescence polarization, FITC-PAM2 peptide (AID 602259); assay type: functional; settings: read-out: IC50_Mean
[4] = Counterscreen for activators of the function of SWI/SNF related, matrix associated, actin dependent regulator of chromatin, subfamily a, member 2 (SMARCA2, BRM): Luminescence-based cell-based high throughput dose response assay to identify non-selective compounds using the VP16 reporter assay.; assay type: functional
[5] = target: SWI/SNF-related matrix-associated actin-dependent regulator of chromatin subfamily A member 2 (Homo sapiens, UniProt P51531); assay: Luminescence-based cell-based high throughput dose response assay to identify activators of the function of SWI/SNF related, matrix associated, actin dependent regulator of chromatin, subfamily a, member 2 (SMARCA2, BRM).; assay type: functional
Chain of SWI/SNF-related matrix-associated actin-dependent regulator of chromatin subfamily A member 2 (P51531 whole entry): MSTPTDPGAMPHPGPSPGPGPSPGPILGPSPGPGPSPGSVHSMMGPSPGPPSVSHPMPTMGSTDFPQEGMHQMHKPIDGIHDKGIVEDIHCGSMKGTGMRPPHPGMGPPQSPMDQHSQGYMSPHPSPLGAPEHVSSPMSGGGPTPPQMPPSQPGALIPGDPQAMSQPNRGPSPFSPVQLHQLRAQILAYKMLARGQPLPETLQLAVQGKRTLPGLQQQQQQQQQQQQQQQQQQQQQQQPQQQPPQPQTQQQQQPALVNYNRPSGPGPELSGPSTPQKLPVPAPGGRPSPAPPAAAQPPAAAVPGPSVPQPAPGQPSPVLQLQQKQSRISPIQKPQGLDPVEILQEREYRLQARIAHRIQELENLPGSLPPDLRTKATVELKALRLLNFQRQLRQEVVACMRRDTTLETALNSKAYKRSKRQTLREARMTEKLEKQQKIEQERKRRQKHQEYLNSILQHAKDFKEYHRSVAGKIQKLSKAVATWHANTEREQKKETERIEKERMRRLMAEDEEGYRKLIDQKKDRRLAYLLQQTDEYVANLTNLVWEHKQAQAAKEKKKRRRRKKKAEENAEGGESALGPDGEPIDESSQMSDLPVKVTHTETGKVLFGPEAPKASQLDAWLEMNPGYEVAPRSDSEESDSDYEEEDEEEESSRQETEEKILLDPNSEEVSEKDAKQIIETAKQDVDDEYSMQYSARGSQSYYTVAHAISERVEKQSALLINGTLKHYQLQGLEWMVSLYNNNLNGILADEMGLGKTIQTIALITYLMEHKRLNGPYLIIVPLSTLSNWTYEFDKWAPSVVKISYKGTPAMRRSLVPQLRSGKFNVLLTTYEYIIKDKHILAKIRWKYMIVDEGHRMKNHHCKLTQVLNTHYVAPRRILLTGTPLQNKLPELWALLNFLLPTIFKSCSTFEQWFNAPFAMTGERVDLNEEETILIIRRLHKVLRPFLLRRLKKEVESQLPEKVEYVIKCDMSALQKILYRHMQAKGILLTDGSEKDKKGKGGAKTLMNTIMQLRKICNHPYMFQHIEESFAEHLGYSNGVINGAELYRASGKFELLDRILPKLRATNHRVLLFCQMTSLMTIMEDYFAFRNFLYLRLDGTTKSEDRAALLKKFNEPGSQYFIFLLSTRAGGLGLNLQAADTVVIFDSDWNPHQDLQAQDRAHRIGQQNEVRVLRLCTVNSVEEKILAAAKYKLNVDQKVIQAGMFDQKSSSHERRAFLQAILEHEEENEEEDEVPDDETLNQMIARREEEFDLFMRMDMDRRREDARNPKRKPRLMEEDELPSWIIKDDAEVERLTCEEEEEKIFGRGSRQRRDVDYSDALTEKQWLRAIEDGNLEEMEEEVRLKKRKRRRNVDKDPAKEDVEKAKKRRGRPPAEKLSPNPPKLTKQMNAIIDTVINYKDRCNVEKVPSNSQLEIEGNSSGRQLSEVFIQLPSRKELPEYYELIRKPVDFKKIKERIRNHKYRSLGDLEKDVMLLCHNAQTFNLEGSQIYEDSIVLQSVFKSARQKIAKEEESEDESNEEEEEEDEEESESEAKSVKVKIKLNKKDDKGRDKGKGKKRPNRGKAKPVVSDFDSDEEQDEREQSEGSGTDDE

T1 sequence (P11940 whole entry): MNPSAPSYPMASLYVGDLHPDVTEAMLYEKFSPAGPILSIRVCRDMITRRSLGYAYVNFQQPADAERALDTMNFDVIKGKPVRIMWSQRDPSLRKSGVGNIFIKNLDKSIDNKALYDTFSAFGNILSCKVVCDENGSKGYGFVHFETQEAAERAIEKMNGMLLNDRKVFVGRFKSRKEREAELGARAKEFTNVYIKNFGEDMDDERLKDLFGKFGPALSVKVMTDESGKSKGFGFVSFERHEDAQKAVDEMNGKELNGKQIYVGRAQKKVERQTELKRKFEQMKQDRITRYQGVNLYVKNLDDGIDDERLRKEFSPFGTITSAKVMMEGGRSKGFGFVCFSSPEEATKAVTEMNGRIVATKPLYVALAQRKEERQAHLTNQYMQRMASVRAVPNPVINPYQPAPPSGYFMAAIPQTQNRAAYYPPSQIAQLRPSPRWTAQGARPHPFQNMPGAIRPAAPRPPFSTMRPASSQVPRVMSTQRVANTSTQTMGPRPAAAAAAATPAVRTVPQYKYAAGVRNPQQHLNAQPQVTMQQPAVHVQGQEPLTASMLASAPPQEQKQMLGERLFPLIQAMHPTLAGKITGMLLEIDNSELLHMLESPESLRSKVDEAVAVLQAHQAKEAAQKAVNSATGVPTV

Structure (SMILES): COc1ccc2c3c(cccc13)C(=O)N(O)C2=O
- IC50 [1]: > 66 µM (inactive)
- Absolute IC50 (XBP1) [2]: 10 µM
- IC50 [3]: 35.2 µM (inactive)
- EC50 [4]: > 91.2 µM (inactive)
- EC50 [5]: 26.4 µM (inactive)
